This series is described as follows: Plasma kinetics of ivermectin after spot-on application at different doses in combination with fipronil to dogs. The class given is in vivo, dog. The procedure:
This study was undertaken in order to assess the linearity of the percutaneous passage of ivermectin after spot-on application of different doses of ivermectin (100, 250, 500 and 1000 μg.kg^−1) in combination with fipronil (10 mg.kg^−1) to the dog. Furthermore, the possibility of control both heartworms and gastro-intestinal nematodes was evaluated.
Twelve male Beagle dogs (allocated into 4 groups of 3 animals were applied spot-on formulations combining ivermectin (0.1%, 0.25%, 0.5% and 1%) and fipronil (10%) at a dose rate of 0.1 ml.kg^−1 (i.e. 100, 250, 500 and 1000 μg.kg^−1 of ivermectin and 10 mg.kg^−1 of fipronil).
The formulations are as follows: […]
The formulations were applied at one spot onto the skin between the shoulder blades.
Blood samples were collected at intervals up to 56 days post treatment.
The determination of ivermectin was carried out by HPLC after an automated solid/liquid extraction, using fluorescence detection, with limit of quantification of 100 pg.ml^−1. The determination of fipronil and its sulfone metabolite (RM1602) was carried out by HPLC with UV detection, with a limit of quantification of 20 ng.ml^−1 for fipronil and RM1602. Both methods were validated in terms of specificity, extraction recovery, linearity, precision and accuracy.

SMILES strings stand for the structures.

Take `N#Cc1nn(-c2c(Cl)cc(C(F)(F)F)cc2Cl)c(N)c1S(=O)(=O)C(F)(F)F` [RM1602]: the “plasma concentrations compared with those usually observed in dogs treated at the same dose in previous studies” value (spot-on, fipronil 10 mg.kg^−1, dogs) was “significantly inferior”.

As to `N#Cc1nn(-c2c(Cl)cc(C(F)(F)F)cc2Cl)c(N)c1[S+]([O-])C(F)(F)F` (centres unmarked) [fipronil, 1-[2,6-Cl2-4-CF3 phenyl]-3-CN-4-[SO—CF3]-5-NH2 pyrazole], under “dog, in vivo”, the “plasma concentrations compared with those usually observed in dogs treated at the same dose in previous studies” value is recorded as “significantly inferior”.

These data come from patent US6962713B2, “Spot-on formulations for combating parasites” (Merial, priority 1919, dated 2005).
